30 substances from paper PMC6615261, “Repurposing Azithromycin and Rifampicin Against Gram-Negative Pathogens by Combination With Peptidomimetics” (Frontiers in Cellular and Infection Microbiology, 2019) can be followed below.

Experiment [1] deals with MDR E. coli ST131. Description: Screening of peptidomimetic-antibiotic combinations (growth / growth inhibition). Details: key to Growth in combination with RIF / Growth in combination with AZM: Growth (+); growth inhibition (–). Format: cell-based, Escherichia coli. As to conditions: for Growth in combination with AZM: peptidomimetic 0.5 μM + azithromycin 1 μg/mL; for Growth in combination with RIF: peptidomimetic 0.5 μM + rifampicin 0.5 μg/mL; for Potentiation in the screening, rifampicin or azithromycin: 0.5 μM peptidomimetic. As for the experimental part: (§1) Minimal inhibitory concentrations (MICs) of peptidomimetics, antibiotics and their combinations were determined by broth microdilution according to the Clinical Laboratory Standards Institute performance standards (Clinical and Laboratory Standards Institute, [2013]). […] Since rifampicin and azithromycin mainly are used to treat infections with Gram-positive pathogens only CLSI clinical breakpoints were available for such bacteria. […] Potentiation of additional antibiotics by peptidomimetics was determined by using commercial 96-well plates containing varied concentrations of standard antibiotics (COMPAN1F; Trek Diagnostic Systems Inc.). The peptidomimetics were added immediately prior to inoculation with pathogen, and then MICs were determined as above. The MICs of peptidomimetic/antibiotic combinations were determined according to the method above, and the concentration ratios were selected based upon checkerboard results with 2:1 and 1:4 ratio of peptidomimetic with rifampicin or azithromycin, respectively. Minimal bactericidal concentrations (MBCs) were determined by using growth-curve assay plates. MIC plates were prepared as above, and then the plates were incubated at 37°C with continuous shaking. Growth was recorded at 10 min intervals as optical density (OD) at 600 nm during 24 h. At 24 h, for wells without growth, a sample was diluted 10-fold in sterile saline (0.9% sodium chloride) and plated onto MHA, following CLSI guidelines (Clinical and Laboratory Standards Institute, [1999]).

For experiment [2], the system named is K. pneumoniae ST258. The description is as above. The class given is cell-based, Klebsiella pneumoniae. On the set-up: key to Growth in combination with RIF / Growth in combination with AZM: Growth (+); growth inhibition (–). As to conditions: for Growth in combination with AZM: peptidomimetic 0.5 μM + azithromycin 1 μg/mL; for Growth in combination with RIF: peptidomimetic 0.5 μM + rifampicin 0.5 μg/mL; for Potentiation in the screening, rifampicin or azithromycin: 0.5 μM peptidomimetic. How it is done:
as §1

“(NLys)LG(NLys)IW(NLys)I(Nlys)2LF-NH2 [Peptidomimetic 32]”: the “Growth in combination with AZM” value in experiment [1] and in experiment [2] was “+” each time. In addition, the “Growth in combination with RIF” value in experiment [1] and in experiment [2] was “+” each time.

As for “(NLys)W(NLys)LF(NLys)2VL(NLys)VLTTG-NH2 [Peptidomimetic 33]”, the “Growth in combination with AZM” value in experiment [1] and in experiment [2] was “+” each time. Further, the “Growth in combination with RIF” value in experiment [1] and in experiment [2] was “+” throughout.

For Ac-(Lys-NTrp)8-NH2 [Peptidomimetic 19], in experiment [1], the “Growth in combination with AZM” value was “–” and the “Growth in combination with RIF” value is “+”. In experiment [2], the “Growth in combination with AZM” value is on record as “+” and the “Growth in combination with RIF” value is “+”.

For the substance Ac-(Lys-βNspe)6-NH2 [Peptidomimetic 6], in experiment [1], the “Growth in combination with AZM” value was “–” and the “Growth in combination with RIF” value was “–”. Besides, in experiment [2], the “Growth in combination with AZM” value is reported as “+” and the “Growth in combination with RIF” value is “+”.

As to Ac-(Lys-βNspe)8-NH2 [Peptidomimetic 5], in experiment [1], the “Growth in combination with AZM” value is recorded as “–” and the “Growth in combination with RIF” value is on record as “–”. Further, in experiment [2], the “Growth in combination with AZM” value was “+” and the “Growth in combination with RIF” value is given as “+”.

Regarding “Ac-(Lys-βNspe-hArg-βNspe)2-NH2 [Peptidomimetic 10]”, the “Screening result with rifampicin” value in experiment [1] (0.5 μM peptidomimetic + 0.5 μg/mL rifampicin) is on record as “potentiated rifampicin activity”. Further, in experiment [1], the “Growth in combination with AZM” value was “+” and the “Growth in combination with RIF” value is recorded as “–”. In addition, in experiment [2], the “Growth in combination with AZM” value is given as “+” and the “Growth in combination with RIF” value is reported as “+”.

Regarding Ac-(NLys-NPhe)8-NH2 [Peptidomimetic 22], in experiment [1], the “Growth in combination with AZM” value is recorded as “–” and the “Growth in combination with RIF” value is recorded as “–”. Moreover, in experiment [2], the “Growth in combination with AZM” value is listed as “+” and the “Growth in combination with RIF” value is listed as “+”.

As for Ac-(NLys-Trp)8-NH2 [Peptidomimetic 20], in experiment [1], the “Growth in combination with AZM” value was “+” and the “Growth in combination with RIF” value is given as “–”. Moreover, in experiment [2], the “Growth in combination with AZM” value was “+” and the “Growth in combination with RIF” value was “+”.

With “Ac-(azaLys-βNspe-Lys-βNspe)4-NH2 [Peptidomimetic 17]”, the “Growth in combination with AZM” value in experiment [1] and in experiment [2] was “+” in each case. Moreover, the “Growth in combination with RIF” value in experiment [1] and in experiment [2] was “+” throughout.

Turning to Ac-(bNLys-Trp)8-NH2 [Peptidomimetic 21], in experiment [1], the “Growth in combination with AZM” value was “+” and the “Growth in combination with RIF” value was “–”. In experiment [2], the “Growth in combination with AZM” value is on record as “+” and the “Growth in combination with RIF” value is reported as “+”.

On to “Ac-(bNLys-bNPhe)8-NH2 [Peptidomimetic 18]”, for which the “Growth in combination with AZM” value in experiment [1] and in experiment [2] was “+” each time. The “Growth in combination with RIF” value in experiment [1] and in experiment [2] was “+” in each case.

Regarding Ac-(hArg-βNPhe)5-NH2 [Peptidomimetic 3], the “Growth in combination with AZM” value in experiment [1] and in experiment [2] was “+” each time. The “Growth in combination with RIF” value in experiment [1] is given as “–”; in experiment [2], “+”.

Ac-(hArg-βNPhe)8-NH2 [Peptidomimetic 2]: in experiment [1], the “Growth in combination with AZM” value was “+” and the “Growth in combination with RIF” value was “+”. In addition, in experiment [2], the “Growth in combination with AZM” value is given as “+” and the “Growth in combination with RIF” value is “+”.

With Ac-(hArg-βNchx)6-NH2 [Peptidomimetic 7], in experiment [1], the “Growth in combination with AZM” value is “+” and the “Growth in combination with RIF” value is “+”. For the same substance, in experiment [2], the “Growth in combination with AZM” value was “+” and the “Growth in combination with RIF” value is recorded as “+”.

Regarding “Ac-(hArg-βNchx-Lys-βNspe)3-NH2 [Peptidomimetic 8]”, in experiment [1], the “Growth in combination with AZM” value is reported as “+” and the “Growth in combination with RIF” value is “+”. Besides, in experiment [2], the “Growth in combination with AZM” value is given as “+” and the “Growth in combination with RIF” value is “+”.

“Ac-(hArg-βNspe)6-(Trp)2-NH2 [Peptidomimetic 16]”: in experiment [1], the “Growth in combination with AZM” value was “+” and the “Growth in combination with RIF” value was “+”. Besides, in experiment [2], the “Growth in combination with AZM” value is recorded as “+” and the “Growth in combination with RIF” value is “+”.

For the substance Ac-(hArg-βNspe)7-NH2 [Peptidomimetic 4], in experiment [1], the “Growth in combination with AZM” value was “+” and the “Growth in combination with RIF” value is on record as “+”. Further, in experiment [2], the “Growth in combination with AZM” value was “+” and the “Growth in combination with RIF” value is reported as “+”.

Take “Ac-[(S)-Aoc]-(Lys-βNPhe)6-NH2 [Peptidomimetic 41]”: in experiment [1], the “Growth in combination with AZM” value is “–” and the “Growth in combination with RIF” value is reported as “–”. In experiment [2], the “Growth in combination with AZM” value was “+” and the “Growth in combination with RIF” value is recorded as “+”.

On to Cin-(Lys-Phe)8-NH2 [Peptidomimetic 24], for which, in experiment [1], the “Growth in combination with AZM” value is “+” and the “Growth in combination with RIF” value is “+”. In experiment [2], the “Growth in combination with AZM” value was “+” and the “Growth in combination with RIF” value was “+”.

For “Cin-(Lys-βNspe-hArg-βNspe)3-NH2 [Peptidomimetic 27]”, in experiment [1], the “Potentiation in the screening, rifampicin or azithromycin” value (from here on “Potentiation in the screening”) is on record as “did not exhibit any potentiation activity”; the “Growth in combination with AZM” value is reported as “+”; the “Growth in combination with RIF” value is reported as “+”. Moreover, in experiment [2], the “Potentiation in the screening” value is on record as “did not exhibit any potentiation activity”; the “Growth in combination with AZM” value is reported as “+”; the “Growth in combination with RIF” value is “+”.

Turning to “F5Ph-acetic acid-(5F-Phe)-(Lys-βNspe-hArg-βNspe)3-NH2 [Peptidomimetic 29]”, in experiment [1], the “Potentiation in the screening” value is on record as “did not exhibit any potentiation activity”; the “Growth in combination with AZM” value is “+”; the “Growth in combination with RIF” value is listed as “+”. In addition, in experiment [2], the “Potentiation in the screening” value is “did not exhibit any potentiation activity”; the “Growth in combination with AZM” value is given as “+”; the “Growth in combination with RIF” value was “+”.

Consider “G(NLys)W(NLys)2II(NLys)VA(NLys)-NH2 [Peptidomimetic 31]”, for which the “Growth in combination with AZM” value in experiment [1] and in experiment [2] was “+” in each case. Moreover, the “Growth in combination with RIF” value in experiment [1] and in experiment [2] was “+” each time.

On to “Lau-(Lys-βNPhe)6-NH2 [Peptidomimetic 37]”, for which, in experiment [1], the “Growth in combination with AZM” value is “+” and the “Growth in combination with RIF” value is listed as “–”. In addition, in experiment [2], the “Growth in combination with AZM” value is “+” and the “Growth in combination with RIF” value is reported as “+”.

Turning to “Lau-Dap(Lau)-(Lys-βNspe-hArg-βNspe)3-NH2 [Peptidomimetic 40]”, in experiment [1], the “Growth in combination with AZM” value is recorded as “+” and the “Growth in combination with RIF” value is recorded as “+”. Moreover, in experiment [2], the “Growth in combination with AZM” value is “+” and the “Growth in combination with RIF” value is “+”.

In the case of “Oct-(Lys-βNspe)6-NH2 [Peptidomimetic 35]”, the “Growth in combination with AZM” value in experiment [1] and in experiment [2] was “+” throughout. Besides, the “Growth in combination with RIF” value in experiment [1] and in experiment [2] was “+” throughout.

Consider “Oct-[(S)-Aoc]-(Lys-βNphe)6-NH2 [Peptidomimetic 42]”, for which the “Growth in combination with AZM” value in experiment [1] and in experiment [2] was “+” throughout. The “Growth in combination with RIF” value in experiment [1] and in experiment [2] was “+” throughout.

With “Pam-(Lys-βNPhe)6-NH2 [Peptidomimetic 36]”, in experiment [1], the “Growth in combination with AZM” value is given as “+” and the “Growth in combination with RIF” value is given as “+”. In addition, in experiment [2], the “Growth in combination with AZM” value is on record as “+” and the “Growth in combination with RIF” value is “+”.

As for “Pam-(Lys-βNspe)6-NH2 [Peptidomimetic 34]”, the “Growth in combination with AZM” value in experiment [1] and in experiment [2] was “+” throughout. In addition, the “Growth in combination with RIF” value in experiment [1] and in experiment [2] was “+” throughout.

As for “Pam-(Lys-βNspe-hArg-βNspe)2-NH2 [Peptidomimetic 13]”, in experiment [1], the “Potentiation in the screening” value is “did not exhibit any potentiation activity”; the “Growth in combination with AZM” value is listed as “+”; the “Growth in combination with RIF” value was “+”. Besides, in experiment [2], the “Potentiation in the screening” value was “did not exhibit any potentiation activity”; the “Growth in combination with AZM” value is on record as “+”; the “Growth in combination with RIF” value was “+”.

“Pam-(Lys-βNspe-hArg-βNspe)3-NH2 [Peptidomimetic 12]”: in experiment [1], the “Potentiation in the screening” value was “did not exhibit any potentiation activity”; the “Growth in combination with AZM” value is listed as “+”; the “Growth in combination with RIF” value was “+”. Also, in experiment [2], the “Potentiation in the screening” value is recorded as “did not exhibit any potentiation activity”; the “Growth in combination with AZM” value was “+”; the “Growth in combination with RIF” value is given as “+”.
